# Target: NamPT (Homo sapiens (Human), UniProt P43490)
# Test: Measurement of NamPT inhibitory ability IC50 (NamPT colorimetric assay kit, Abcam ab221819)
# Assay type: biochemical
# Details: NamPT recombinant protein, WST-1 absorbance at 450 nm; class key in μM
# Protocol: To test the effect of the compound prepared in each Example on the substrate decomposition rate (Vmax/min) mediated by NamPT enzyme, IC50 was calculated. In this experiment, the NamPT colorimetric assay kit (ab221819) produced by Abcam was used, and Graph prism software was used for IC50 calculation. PRPP, ATP, NMNAT1, NamPT recombinant proteins, and various concentrations of the compound of each Example (half-log step dilution from 100 μM) were added to nicotinamide to synthesize nicotinamide adenine dinucleotide (NAD) from the nicotinamide, and a total of 60 μL of the reaction solution was reacted at room temperature for 1 hour. WST-1 formazan converted by NAD generated by adding WST-1 was measured. The result of the reaction was obtained by the following formula by measuring absorbance using EnVision2105 (PerkinElmer) at 450 nm for 60 minutes at 2-minute intervals.
# In Mathematical Formula 1, T1 and T2 are arbitrary times, and A1 and A2 represent the absorbance measured at T1 and T2 at 450 nm, respectively.
# The results of measuring the NamPT inhibition activity of the compound of each Example obtained through the above experiment are shown in Table 1 in the unit of IC50 (nM), and the result values are expressed as follows.
# Sequence of NamPT (P43490 whole entry): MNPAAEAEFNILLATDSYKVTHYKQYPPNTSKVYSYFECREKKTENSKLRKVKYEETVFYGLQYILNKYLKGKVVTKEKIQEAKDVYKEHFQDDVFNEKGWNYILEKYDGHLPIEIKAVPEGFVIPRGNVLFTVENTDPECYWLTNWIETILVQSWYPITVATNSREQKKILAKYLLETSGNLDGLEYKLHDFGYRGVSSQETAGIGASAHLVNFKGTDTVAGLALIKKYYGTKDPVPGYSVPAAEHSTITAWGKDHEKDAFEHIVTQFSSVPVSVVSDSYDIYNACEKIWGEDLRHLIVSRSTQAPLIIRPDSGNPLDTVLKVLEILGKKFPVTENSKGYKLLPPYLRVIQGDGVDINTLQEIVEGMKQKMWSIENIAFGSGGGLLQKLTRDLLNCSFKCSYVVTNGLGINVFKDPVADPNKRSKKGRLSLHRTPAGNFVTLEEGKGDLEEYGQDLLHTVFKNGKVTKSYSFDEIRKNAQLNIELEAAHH
row,IC50 [µM],Structure (SMILES)
1,0.051 to 0.1,"Cc1ccc2nc(-c3ccc(CNC(=O)c4cnc5nccn5c4)cc3)oc2c1 [Example 1, N-[[4-(6-methyl-1,3-benzoxazol-2-yl)phenyl]methyl]imidazo[1,2-a]pyrimidin-6-carboxamide]"
2,0.11 to 1,"O=C(O)c1ccc2nc(-c3ccc(CNC(=O)c4cnc5nccn5c4)cc3)oc2c1 [Example 5, 2-[4-[(imidazo[1,2-a]pyrimidin-6-carbonylamino)methyl]phenyl]-1,3-benzoxazol-6-carboxylic acid]"
3,< 0.05,"COc1ccc2oc(-c3ccc(CNC(=O)c4cnc5nccn5c4)cc3)nc2c1 [Example 7, N-[[4-(5-methoxy-1,3-benzoxazol-2-yl)phenyl]methyl]imidazo[1,2-a]pyrimidin-6-carboxamide]"
4,< 0.05,"Cc1ccc2nc(-c3ccc(CNC(=O)c4cnc5nccn5c4)cc3)sc2c1 [Example 8, N-[[4-(6-methyl-1,3-benzothiazol-2-yl)phenyl]methyl]imidazo[1,2-a]pyrimidin-6-carboxamide]"
5,< 0.05,"CCS(=O)(=O)c1ccc2nc(-c3ccc(CNC(=O)c4cnc5nccn5c4)cc3)oc2c1 [Example 14, N-[[4-(6-ethylsulfonyl-1,3-benzoxazol-2-yl)phenyl]methyl]imidazo[1,2-a]pyrimidin-6-carboxamide]"
6,0.11 to 1,"CCC(=O)Nc1ccc2oc(-c3ccc(CNC(=O)c4cnc5nccn5c4)cc3)nc2c1 [Example 15, N-[[4-[5-(propanoylamino)-1,3-benzoxazol-2-yl]phenyl]methyl]imidazo[1,2-a]pyrimidin-6-carboxamide]"
7,< 0.05,"O=C(NCc1ccc(-c2nc3cc(Cl)ccc3o2)cc1)c1cnc2nccn2c1 [Example 16, N-[[4-(5-chloro-1,3-benzoxazol-2-yl)phenyl]methyl]imidazo[1,2-a]pyrimidin-6-carboxamide]"
8,0.11 to 1,"O=C(NCc1ccc(-c2nc3cc(F)ccc3o2)cc1)c1cnc2nccn2c1 [Example 18, N-[[4-(5-fluoro-1,3-benzoxazol-2-yl)phenyl]methyl]imidazo[1,2-a]pyrimidin-6-carboxamide]"
9,0.11 to 1,"Cc1cccc2oc(-c3ccc(CNC(=O)c4cnc5nccn5c4)cc3)nc12 [Example 20, N-[[4-(4-methyl-1,3-benzoxazol-2-yl)phenyl]methyl]imidazo[1,2-a]pyrimidin-6-carboxamide]"
10,0.11 to 1,"Cc1cccc2nc(-c3ccc(CNC(=O)c4cnc5nccn5c4)cc3)oc12 [Example 21, N-[[4-(7-methyl-1,3-benzoxazol-2-yl)phenyl]methyl]imidazo[1,2-a]pyrimidin-6-carboxamide]"
11,< 0.05,"O=C(NCc1ccc(-c2nc3cc(O)ccc3o2)cc1)c1cnc2nccn2c1 [Example 23, N-[[4-(5-hydroxy-1,3-benzoxazol-2-yl)phenyl]methyl]imidazo[1,2-a]pyrimidin-6-carboxamide]"
12,< 0.05,"Cc1ccc2nc(-c3ccc(CNC(=O)c4cnc5nccn5c4)cc3)oc2n1 [Example 24, N-[[4-(5-methyloxazolo[5,4-b]pyridin-2-yl)phenyl]methyl]imidazo[1,2-a]pyrimidin-6-carboxamide]"
13,< 0.05,"O=C(NCc1ccc(-c2nc3cc(Oc4ccccn4)ccc3o2)cc1)c1cnc2nccn2c1 [Example 25, N-[[4-[5-(2-pyridyloxy)-1,3-benzoxazol-2-yl]phenyl]methyl]imidazo[1,2-a]pyrimidin-6-carboxamide]"
14,0.051 to 0.1,"Nc1ccc2nc(-c3ccc(CNC(=O)c4cnc5nccn5c4)cc3)oc2c1 [Example 26, N-[[4-(6-amino-1,3-benzoxazol-2-yl)phenyl]methyl]imidazo[1,2-a]pyrimidin-6-carboxamide]"
15,0.051 to 0.1,"O=C(NCc1ccc(-c2nc3cc(-c4cccnc4)ccc3o2)cc1)c1cnc2nccn2c1 [Example 27, N-[[4-[5-(3-pyridyl)-1,3-benzoxazol-2-yl]phenyl]methyl]imidazo[1,2-a]pyrimidin-6-carboxamide]"
16,0.11 to 1,"Cc1ccc2nc(-c3ccc(CNC(=O)c4cnc5nccn5c4)nc3)oc2c1 [Example 28, N-[[5-(6-methyl-1,3-benzoxazol-2-yl)-2-pyridyl]methyl]imidazo[1,2-a]pyrimidin-6-carboxamide]"
17,< 0.05,"CCOC(=O)c1ccc2oc(-c3ccc(CNC(=O)c4cnc5nccn5c4)cc3)nc2c1 [Example 29, ethyl 2-[4-[(imidazo[1,2-a]pyrimidin-6-carbonylamino)methyl]phenyl]-1,3-benzoxazol-5-carboxylate]"
18,< 0.05,"O=C(NCc1ccc(-c2nc3cc(CO)ccc3o2)cc1)c1cnc2nccn2c1 [Example 30, N-[[4-[5-(hydroxymethyl)-1,3-benzoxazol-2-yl]phenyl]methyl]imidazo[1,2-a]pyrimidin-6-carboxamide]"

row,IC50 [µM],Structure (SMILES)
1,< 0.05,"Cc1ccc2nc(-c3ccc(CNC(=O)c4cnc5nccn5c4)c(F)c3)oc2c1 [Example 35, N-[[2-fluoro-4-(6-methyl-1,3-benzoxazol-2-yl)phenyl]methyl]imidazo[1,2-a]pyrimidin-6-carboxamide]"
2,0.11 to 1,"O=C(NCc1ccc(-c2nc3cnccc3o2)cc1)c1cnc2nccn2c1 [Example 36, N-[(4-oxazolo[4,5-c]pyridin-2-ylphenyl)methyl]imidazo[1,2-a]pyrimidin-6-carboxamide]"
3,0.11 to 1,"CCS(=O)(=O)c1ccc2oc(-c3ccc(CNC(=O)c4cnc5nccn5c4)cc3)nc2c1 [Example 37, N-[[4-(5-ethylsulfonyl-1,3-benzoxazol-2-yl)phenyl]methyl]imidazo[1,2-a]pyrimidin-6-carboxamide]"
4,< 0.05,"O=C(NCc1ccc(-c2nc3cc(F)c(F)cc3o2)cc1)c1cnc2nccn2c1 [Example 39, N-[[4-(5,6-difluoro-1,3-benzoxazol-2-yl)phenyl]methyl]imidazo[1,2-a]pyrimidin-6-carboxamide]"
5,< 0.05,"O=C(NCc1ccc(-c2nc3c(F)cc(F)cc3o2)cc1)c1cnc2nccn2c1 [Example 40, N-[[4-(4,6-difluoro-1,3-benzoxazol-2-yl)phenyl]methyl]imidazo[1,2-a]pyrimidin-6-carboxamide]"
6,< 0.05,"O=C(NCc1ccc(-c2nc3cc(C(F)(F)F)c(Cl)cc3o2)cc1)c1cnc2nccn2c1 [Example 41, N-[[4-[6-chloro-5-(trifluoromethyl)-1,3-benzoxazol-2-yl]phenyl]methyl]imidazo[1,2-a]pyrimidin-6-carboxamide]"
7,< 0.05,"O=C(NCc1ccc(-c2nc3cc(Cl)c(C(F)(F)F)cc3o2)cc1)c1cnc2nccn2c1 [Example 42, N-[[4-[5-chloro-6-(trifluoromethyl)-1,3-benzoxazol-2-yl]phenyl]methyl]imidazo[1,2-a]pyrimidin-6-carboxamide]"
8,< 0.05,"COc1cc2nc(-c3ccc(CNC(=O)c4cnc5nccn5c4)cc3)oc2cc1C [Example 43, N-[[4-(5-methoxy-6-methyl-1,3-benzoxazol-2-yl)phenyl]methyl]imidazo[1,2-a]pyrimidin-6-carboxamide]"
9,< 0.05,"CCc1ccc2oc(-c3ccc(CNC(=O)c4cnc5nccn5c4)cc3)nc2c1 [Example 44, N-[[4-(5-ethyl-1,3-benzoxazol-2-yl)phenyl]methyl]imidazo[1,2-a]pyrimidin-6-carboxamide]"
10,< 0.05,"CCc1ccc2nc(-c3ccc(CNC(=O)c4cnc5nccn5c4)cc3)oc2c1 [Example 45, N-[[4-(6-ethyl-1,3-benzoxazol-2-yl)phenyl]methyl]imidazo[1,2-a]pyrimidin-6-carboxamide]"
11,0.051 to 0.1,"Nc1ccc2oc(-c3ccc(CNC(=O)c4cnc5nccn5c4)cc3)nc2c1 [Example 46, N-[[4-(5-amino-1,3-benzoxazol-2-yl)phenyl]methyl]imidazo[1,2-a]pyrimidin-6-carboxamide]"
12,< 0.05,"O=C(NCc1ccc(-c2nc3cc(Cl)ccc3s2)cc1)c1cnc2nccn2c1 [Example 49, N-[[4-(5-chloro-1,3-benzothiazol-2-yl)phenyl]methyl]imidazo[1,2-a]pyrimidin-6-carboxamide]"
13,0.051 to 0.1,"O=C(NCc1ccc(-c2nc3ccc(Cl)cc3s2)cc1)c1cnc2nccn2c1 [Example 50, N-[[4-(6-chloro-1,3-benzothiazol-2-yl)phenyl]methyl]imidazo[1,2-a]pyrimidin-6-carboxamide]"
14,< 0.05,"COc1ccc2sc(-c3ccc(CNC(=O)c4cnc5nccn5c4)cc3)nc2c1 [Example 51, N-[[4-(5-methoxy-1,3-benzothiazol-2-yl)phenyl]methyl]imidazo[1,2-a]pyrimidin-6-carboxamide]"
15,< 0.05,"COc1ccc2nc(-c3ccc(CNC(=O)c4cnc5nccn5c4)cc3)sc2c1 [Example 52, N-[[4-(6-methoxy-1,3-benzothiazol-2-yl)phenyl]methyl]imidazo[1,2-a]pyrimidin-6-carboxamide]"
16,< 0.05,"O=C(NCc1ccc(-c2nc3cc(Oc4ccccc4)ccc3o2)cc1)c1cnc2nccn2c1 [Example 53, N-[[4-(5-phenoxy-1,3-benzoxazol-2-yl)phenyl]methyl]imidazo[1,2-a]pyrimidin-6-carboxamide]"
17,0.051 to 0.1,"CCCOc1ccc2oc(-c3ccc(CNC(=O)c4cnc5nccn5c4)cc3)nc2c1 [Example 54, N-[[4-(5-propoxy-1,3-benzoxazol-2-yl)phenyl]methyl]imidazo[1,2-a]pyrimidin-6-carboxamide]"
18,> 1,"O=C(NCc1ccc(-c2nc3cc(OCc4ccccc4)ccc3o2)cc1)c1cnc2nccn2c1 [Example 55, N-[[4-(5-benzyloxy-1,3-benzoxazol-2-yl)phenyl]methyl]imidazo[1,2-a]pyrimidin-6-carboxamide]"
